Test results published in ChEMBL document CHEMBL5108024, “New C-6 functionalized quinoline NorA inhibitors strongly synergize with ciprofloxacin against planktonic and biofilm growing resistant Staphylococcus aureus strains” (Eur J Med Chem, 2022).
Converted amounts (≈) assume the structure as drawn. “And” between values parts separate entries of the source, which are not always exact repeats. Identical values can stand only once. The source made the active and inactive calls. The calls are words filed in the database; no cut-off is given here.

How the values were obtained:
Staphylococcus aureus [1] = test: Inhibition of EtBr efflux in ciprofloxacin-resistant Staphylococcus aureus 1199B overexpressing norA and harboring A116E grlA mutant assessed as reduction in fluorescence intensity at 50 uM measured for 5 mins by microplate reader analysis relative to control; type: functional
Staphylococcus aureus [2] = test: Inhibition of EtBr efflux in ciprofloxacin-resistant Staphylococcus aureus 1199B overexpressing norA and harboring A116E grlA mutant assessed as reduction in fluorescence intensity at 10 uM measured for 5 mins by microplate reader analysis relative to control; type: functional
Staphylococcus aureus [3] = test: Antibacterial activity against ciprofloxacin-resistant Staphylococcus aureus 1199B overexpressing norA and harboring A116E grlA mutant assessed as inhibition of bacterial growth by broth microdilution method; type: functional
Staphylococcus aureus [4] = test: Synergistic antibacterial activity against ciprofloxacin-resistant Staphylococcus aureus 1199B overexpressing norA and harboring A116E grlA mutant assessed as fold reduction in ciprofloxacin MIC at 6.25 uM by broth microdilution method; type: functional
Staphylococcus aureus [5] = test: Antibacterial activity against ciprofloxacin-susceptible wild type Staphylococcus aureus 1199 assessed as inhibition of bacterial growth by broth microdilution method; type: functional
Staphylococcus aureus [6] = test: Synergistic antibacterial activity against Staphylococcus aureus 1199B overexpressing norA and harboring A116E grlA mutant assessed as eight fold minimum potentiating concentration incubated in presence of ciprofloxacin by checkerboard assay; type: functional
Staphylococcus aureus [7] = test: Synergistic antibiofilm activity against Staphylococcus aureus 1199B overexpressing norA and harboring A116E grlA mutant assessed as biofilm eradication by measuring ciprofloxacin MBEC at 3.13 ug/ml incubated for 24 hrs by Calgary biofilm device assay; type: functional; details: dose 3.13 µg/ml
Staphylococcus aureus [8] = test: Synergistic antibiofilm activity against wild type Staphylococcus aureus 1199 assessed as biofilm eradication by measuring ciprofloxacin MBEC at 3.13 ug/ml incubated for 24 hrs by Calgary biofilm device assay; type: functional; details: dose 3.13 µg/ml
Staphylococcus aureus [9] = test: Synergistic bactericidal activity against Staphylococcus aureus 1199B overexpressing norA and harboring A116E grlA mutant assessed as reduction in bacterial count by measuring log reduction in colony forming count per ml at 6.25 ug/ml incubated for 4 hrs in presence of ciprofloxacin at 0.25 to 1 times MIC by time kill assay; type: functional; details: dose 6.25 µg/ml
[10] = Cytotoxicity against human THP-1 cells assessed as cell viability at 3.13 ug/ml incubated for 24 hrs by MTT assay relative to control; type: toxicity, cell-based; details: at 3.13 µg/mL, read-out: Activity
[11] = Cytotoxicity against human THP-1 cells assessed as cell viability at 12.5 ug/ml incubated for 24 hrs by MTT assay relative to control; type: toxicity, cell-based; details: at 12.5 µg/mL, read-out: Activity
Staphylococcus aureus [12] = test: Antibacterial activity against Staphylococcus aureus K2378 harbouring norA promoting and coding region assessed as inhibition of bacterial growth by broth microdilution method; type: functional
Staphylococcus aureus [13] = test: Antibacterial activity against norA deleted Staphylococcus aureus K1902 assessed as inhibition of bacterial growth by broth microdilution method; type: functional
Staphylococcus aureus [14] = test: Synergistic antibacterial activity against Staphylococcus aureus 1199B overexpressing norA and harboring A116E grlA mutant assessed as four fold minimum potentiating concentration incubated in presence of ciprofloxacin by checkerboard assay; type: functional
Staphylococcus aureus [15] = test: Synergistic antibacterial activity against Staphylococcus aureus K2378 overexpressing norA assessed as fold reduction in ciprofloxacin MIC at 0.2 to 12.5 ug/ml by checkerboard assay; type: functional; details: dose 0.2-12.5 µg/ml
[16] = Cytotoxicity against human A549 cells assessed as cell viability at 12.5 ug/ml incubated for 24 hrs by MTT assay relative to control; type: toxicity, cell-based; details: at 12.5 µg/mL, read-out: Activity
[17] = Cytotoxicity against human A549 cells assessed as cell viability at 3.13 ug/ml incubated for 24 hrs by MTT assay relative to control; type: toxicity, cell-based; details: at 3.13 µg/mL, read-out: Activity
[18] = Cytotoxicity against human THP-1 cells assessed as cell viability incubated for 24 hrs by MTT assay; type: toxicity, cell-based
Staphylococcus aureus [19] = test: Synergistic antibiofilm activity against norA deleted Staphylococcus aureus K1902 assessed as biofilm eradication by measuring ciprofloxacin MBEC at 3.13 ug/ml incubated for 24 hrs by Calgary biofilm device assay; type: functional; details: dose 3.13 µg/ml
Staphylococcus aureus [20] = test: Synergistic antibiofilm activity against Staphylococcus aureus 1199B overexpressing norA and harboring A116E grlA mutant assessed as biofilm eradication by measuring fold reduction in ciprofloxacin MBEC at 3.13 ug/ml incubated for 24 hrs by Calgary biofilm device assay; type: functional; details: dose 3.13 µg/ml
Staphylococcus aureus [21] = test: Synergistic antibiofilm activity against wild type Staphylococcus aureus 1199 assessed as biofilm eradication by measuring fold reduction in ciprofloxacin MBEC at 3.13 ug/ml incubated for 24 hrs by Calgary biofilm device assay; type: functional; details: dose 3.13 µg/ml
Staphylococcus aureus [22] = test: Synergistic bactericidal activity against Staphylococcus aureus 1199B overexpressing norA and harboring A116E grlA mutant assessed as reduction in bacterial count at 6.25 ug/ml incubated for 6 hrs in presence of ciprofloxacin at MIC by time kill assay; type: functional, organism-based; details: dose 6.25 µg/ml
Staphylococcus aureus [23] = test: Potentiation of ciprofloxacin-induced antibacterial activity against Staphylococcus aureus 1199B overexpressing norA and harboring A116E grlA mutant assessed as post-antibiotic effect by measuring log reduction in colony forming unit per ml at 6.25 ug/ml preincubated for 1 hr followed by compound washout and measured after 5 hrs; type: functional; details: dose 6.25 µg/ml
Staphylococcus aureus [24] = test: Potentiation of ciprofloxacin-induced antibacterial activity against Staphylococcus aureus 1199B overexpressing norA and harboring A116E grlA mutant assessed as time for post-antibiotic effect at 6.25 ug/ml preincubated for 1 hr followed by compound washout and measured after 5 hrs; type: functional; details: dose 6.25 µg/ml
Staphylococcus aureus [25] = test: Synergistic antibacterial activity against Staphylococcus aureus 1199B overexpressing norA and harboring A116E grlA mutant assessed as sixteen fold minimum potentiating concentration incubated in presence of ciprofloxacin by checkerboard assay; type: functional
Staphylococcus aureus [26] = test: Synergistic antibacterial activity against wild type Staphylococcus aureus 1199 assessed as fold reduction in ciprofloxacin MIC at >=3.13 ug/ml by checkerboard assay; type: functional; details: dose >= 3.13 µg/ml

For CCCOc1ccc(-c2cc(OCCN3CCCCC3)c3cc(C(F)(F)F)ccc3n2)cc1, the inhibition (Staphylococcus aureus [1]) was 87.4%, the inhibition (Staphylococcus aureus [2]) was 70.1% and the MIC (Staphylococcus aureus [3]) was > 50 µg/mL and > 545 µM. For the same molecule, the “fold change (FC)” value (Staphylococcus aureus [4]) was 8, the MIC (Staphylococcus aureus [5]) was greater than 50 µg/mL and the MPC (Staphylococcus aureus [6]) was 3.13 µg/mL. The MBEC (Staphylococcus aureus [7]) was greater than 50 µg/mL and the MBEC (Staphylococcus aureus [8]) was 0.07 µg/mL.

Molecule CCCOc1ccc(-c2cc(OCCN3CCCCCC3)c3cc(Br)ccc3n2)cc1 has an inhibition (Staphylococcus aureus [1]) of 76.4%.

With CCCOc1ccc(-c2cc(OCCN3CCCCC3)c3cc(C#N)ccc3n2)cc1 the inhibition (Staphylococcus aureus [1]) was 77.8%.

With CCCOc1ccc(-c2cc(OCCN3CCCCC3)c3cc(OC(F)F)ccc3n2)cc1 the “log(activity)” value (Staphylococcus aureus [9]) was 3, the viability at 24 h, 3.13 ug/ml [10] was 67.7% and the viability at 24 h, 12.5 ug/ml [11] was 9.4%. For the same molecule, the inhibition (Staphylococcus aureus [1]) was 80.2%, the inhibition (Staphylococcus aureus [2]) was 85% and the MIC (Staphylococcus aureus [3]) was > 50 µg/mL and > 548 µM. For the same molecule, the “fold change (FC)” value (Staphylococcus aureus [4]) was “>=8”, the MIC (Staphylococcus aureus [5]) was greater than 50 µg/mL and the MIC (Staphylococcus aureus [12]) was 25 µg/mL (≈ 54.8 µM). It also gave an MIC (Staphylococcus aureus [13]) of 25 µg/mL (≈ 54.8 µM), an MPC (Staphylococcus aureus [14]) of 0.39 µg/mL and an MPC (Staphylococcus aureus [6]) of 0.78 µg/mL. For the same molecule, the “fold change (FC)” value (Staphylococcus aureus [15]) was 4, the viability at 24 h, 12.5 ug/ml [16] was 100% and the viability at 24 h, 3.13 ug/ml [17] was 100%. For the same molecule, the CC50 at 24 h [18] was greater than 3.13 µg/mL, the MBEC (Staphylococcus aureus [7]) was 0.63 µg/mL and the MBEC (Staphylococcus aureus [8]) was 0.07 µg/mL. For the same molecule, the MBEC (Staphylococcus aureus [19]) was 40 µg/mL, the “fold change (FC)” value (Staphylococcus aureus [20]) was 512 and the “fold change (FC)” value (Staphylococcus aureus [21]) was 286. For the same molecule, the Activity (Staphylococcus aureus [22]) was “Active”, the “log(activity)” value (Staphylococcus aureus [23]) was 1 and the Time (Staphylococcus aureus [24]) was 1.2 h.

CCCOc1ccc(-c2cc(OCCN3CCCCCC3)c3cc(C#N)ccc3n2)cc1 gave an inhibition (Staphylococcus aureus [1]) of 84.2%, an inhibition (Staphylococcus aureus [2]) of 86.8% and an MIC (Staphylococcus aureus [3]) greater than 582 µM.

Molecule CCCOc1ccc(-c2cc(OCCN3CCCCCC3)c3cc(C(F)(F)F)ccc3n2)cc1 has a viability at 24 h, 3.13 ug/ml [10] of 65.4%, a viability at 24 h, 12.5 ug/ml [11] of 27% and an inhibition (Staphylococcus aureus [1]) of 85.7%. The inhibition (Staphylococcus aureus [2]) was 65.6%, the MIC (Staphylococcus aureus [3]) was > 50 µg/mL and > 529 µM and the “fold change (FC)” value (Staphylococcus aureus [4]) was “>=8”. It also gave an MIC (Staphylococcus aureus [5]) greater than 50 µg/mL, an MIC (Staphylococcus aureus [12]) greater than 50 µg/mL and an MIC (Staphylococcus aureus [13]) greater than 50 µg/mL. For the same molecule, the MPC (Staphylococcus aureus [6]) was 1.56 µg/mL, the “fold change (FC)” value (Staphylococcus aureus [15]) was 4 and the viability at 24 h, 12.5 ug/ml [16] was 77.1%. For the same molecule, the viability at 24 h, 3.13 ug/ml [17] was 100%, the CC50 at 24 h [18] was greater than 3.13 µg/mL and the MBEC (Staphylococcus aureus [7]) was 0.63 µg/mL. The MBEC (Staphylococcus aureus [8]) was 0.07 µg/mL, the “fold change (FC)” value (Staphylococcus aureus [20]) was 512 and the “fold change (FC)” value (Staphylococcus aureus [21]) was 286.

CCCOc1ccc(-c2cc(OCCN3CCCCC3)c3cc(-c4ccccc4)ccc3n2)cc1 gave an inhibition (Staphylococcus aureus [1]) of 80.6% and an inhibition (Staphylococcus aureus [2]) of 41.9%.

CCCOc1ccc(-c2cc(OCCN(CC)CC)c3cc(OC(F)F)ccc3n2)cc1 showed an inhibition (Staphylococcus aureus [1]) of 71.9%.

Work on CCCOc1ccc(-c2cc(OCCN3CCCCC3)c3cc(OC(C)C)ccc3n2)cc1 yielded an inhibition (Staphylococcus aureus [1]) of 65.3%.

For CCCOc1ccc(-c2cc(OCCN3CCCCC3)c3cc(Nc4ccccc4)ccc3n2)cc1, the inhibition (Staphylococcus aureus [1]) was 84.2%, the inhibition (Staphylococcus aureus [2]) was 50.1% and the MIC (Staphylococcus aureus [3]) was > 50 µg/mL and > 519 µM. The “fold change (FC)” value (Staphylococcus aureus [4]) was 8, the MIC (Staphylococcus aureus [5]) was greater than 50 µg/mL and the MPC (Staphylococcus aureus [14]) was 0.39 µg/mL. The MPC (Staphylococcus aureus [25]) was 0.78 µg/mL and the “fold change (FC)” value (Staphylococcus aureus [26]) was 4.

In the case of CCCOc1ccc(-c2cc(OCCN3CCCCC3)c3cc(OCCC)ccc3n2)cc1, the inhibition (Staphylococcus aureus [1]) is reported as 73.9%.

Molecule CCCOc1ccc(-c2cc(OCCN3CCCCCC3)c3cc(OC(C)C)ccc3n2)cc1 has an inhibition (Staphylococcus aureus [1]) of 75.3%.

CCCOc1ccc(-c2cc(OCCN3CCCCC3)c3cc(OC(F)(F)F)ccc3n2)cc1 showed an inhibition (Staphylococcus aureus [1]) of 81.2%, an inhibition (Staphylococcus aureus [2]) of 86.9% and an MIC (Staphylococcus aureus [3]) greater than 529 µM.

CCCOc1ccc(-c2cc(OCCN(CC)CC)c3cc(C(F)(F)F)ccc3n2)cc1 showed an inhibition (Staphylococcus aureus [1]) of 73.5%.

Work on CCCOc1ccc(-c2cc(OCCN(CC)CC)c3cc(SC)ccc3n2)cc1 yielded an inhibition (Staphylococcus aureus [1]) of 53.3%.
